Results on 1 molecule are retold here after ChEMBL document CHEMBL4011656, “Discovery and Optimization of Chromeno[2,3-c]pyrrol-9(2H)-ones as Novel Selective and Orally Bioavailable Phosphodiesterase 5 Inhibitors for the Treatment of Pulmonary Arterial Hypertension” (J Med Chem, 2017).

Data set [1] relates to Liver. The data set is described as follows: Intrinsic clearance in rat liver microsomes at 0.5 uM. The data set is classed as ADME, microsome. In general terms: Liver microsomes are a subcellular fraction often used to study metabolism.
For data set [2], the system named is Rattus norvegicus. Put plainly: Reduction in MCT-induced increase in mean pulmonary arterial pressure in Wistar rat model of monocrotaline pulmonary arterial hypertension assessed as mean pulmonary arterial pressure at 5 mg/kg, po for 3 weeks (reference value: 32.74 mmHg). Type of data set: functional.
The nature of data set [3]: Cmax in Sprague-Dawley rat at […], iv by LC-MS/MS analysis. The data set is classed as ADME, organism-based. Further details: dose 2.5 mg/kg, route intravenous. The settings on record: in vivo.
Data set [4] in a line: Half life in rat liver microsomes at 0.5 uM. Type of data set: ADME, microsome.
In data set [5] the test system is Liver. The data set is described as follows: Drug metabolism in human liver microsomes assessed as metabolic rate. The data set is classed as ADME, microsome.
A further data set has as its target Cytochrome P450 3A4 (Homo sapiens, UniProt P08684). The data set is described as follows: Inhibition of CYP3A4 in human microsomes in presence of NADPH. Type of data set: ADME.
Data set [6] has as its target 3',5'-cyclic-AMP phosphodiesterase 4D (Homo sapiens, UniProt Q08499). Put plainly: Inhibition of PDE4D2 (86 to 413 residues) (unknown origin) expressed in Escherichia coli BL21(DE3) using [3H]cAMP or [3H]cGMP as substrate after 15 mins by liquid scintillation counting method.
Data set [7] concerns the target High affinity 3',5'-cyclic-AMP phosphodiesterase 7A (Homo sapiens, UniProt Q13946). The data set is described as follows: Inhibition of PDE7A1 (130 to 482 residues) (unknown origin) expressed in Escherichia coli BL21(DE3) using [3H]cGMP or [3H]cAMP as substrate after 15 mins by liquid scintillation counting method.
The nature of data set [8]: Oral bioavailability in Sprague-Dawley rat at 5 mg/kg by LC-MS/MS analysis. As to conditions: in vivo. Type of data set: ADME, organism-based.
Data set [9] has as its target High affinity cAMP-specific and IBMX-insensitive 3',5'-cyclic phosphodiesterase 8A (Homo sapiens, UniProt O60658). Put plainly: Inhibition of PDE8A1 (480 to 820 residues) (unknown origin) using [3H]cGMP or [3H]cAMP as substrate after 15 mins by liquid scintillation counting method.
In data set [10] the target is Rod cGMP-specific 3',5'-cyclic phosphodiesterase subunit alpha (Homo sapiens, UniProt P16499). The data set is described as follows: Inhibition of PDE6A (484 to 817 residues) (unknown origin) expressed in Escherichia coli BL21(DE3) using [3H]cGMP or [3H]cAMP as substrate after 15 mins by liquid scintillation counting method.
Sequence of Rod cGMP-specific 3',5'-cyclic phosphodiesterase subunit alpha (P16499 whole entry, the tested form may be a part): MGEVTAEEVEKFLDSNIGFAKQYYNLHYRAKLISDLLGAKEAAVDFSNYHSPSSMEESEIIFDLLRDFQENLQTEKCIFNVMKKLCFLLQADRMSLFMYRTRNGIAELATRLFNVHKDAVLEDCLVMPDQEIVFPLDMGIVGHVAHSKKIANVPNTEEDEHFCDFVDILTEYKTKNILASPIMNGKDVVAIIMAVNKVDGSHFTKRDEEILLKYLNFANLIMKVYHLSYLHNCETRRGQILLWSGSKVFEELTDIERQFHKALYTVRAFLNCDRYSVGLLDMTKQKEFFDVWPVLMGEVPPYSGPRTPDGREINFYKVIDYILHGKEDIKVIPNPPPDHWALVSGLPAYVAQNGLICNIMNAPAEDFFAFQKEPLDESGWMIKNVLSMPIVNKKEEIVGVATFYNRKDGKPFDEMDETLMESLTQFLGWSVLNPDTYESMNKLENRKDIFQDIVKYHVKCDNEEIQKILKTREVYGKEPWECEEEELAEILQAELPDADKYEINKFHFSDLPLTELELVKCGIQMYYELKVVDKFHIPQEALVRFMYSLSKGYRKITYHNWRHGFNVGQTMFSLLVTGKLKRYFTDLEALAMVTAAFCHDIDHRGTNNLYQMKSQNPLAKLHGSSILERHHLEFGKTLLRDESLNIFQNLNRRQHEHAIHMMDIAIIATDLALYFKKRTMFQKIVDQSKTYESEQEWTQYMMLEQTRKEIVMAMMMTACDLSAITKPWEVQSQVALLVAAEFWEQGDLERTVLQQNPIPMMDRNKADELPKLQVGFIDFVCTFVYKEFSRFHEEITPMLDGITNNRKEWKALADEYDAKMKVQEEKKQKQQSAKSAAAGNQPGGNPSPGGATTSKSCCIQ
Data set [11] can be described thus: Tmax in Sprague-Dawley rat at 5 mg/kg, po by LC-MS/MS analysis. Type of data set: ADME, organism-based. The settings on record: in vivo.
Data set [12] concerns Rattus norvegicus. Put plainly: Inhibition of hypertrophic response in Wistar rat model of monocrotaline pulmonary arterial hypertension assessed as reduction of MCT-induced increase in small pulmonary artery wall thickness at 5 mg/kg, po for 3 weeks. The data set is classed as functional, organism-based.
In data set [13] the test system is Liver. The data set is described as follows: Drug metabolism in rat liver microsomes assessed as metabolic rate. The data set is classed as ADME, microsome.
A short description of data set [14]: AUC (0 to infinity) in Sprague-Dawley rat at 5 mg/kg, po by LC-MS/MS analysis. Type of data set: ADME, organism-based. On the set-up: dose 5 mg/kg, time infinity, route oral. As to conditions: in vivo.
Data set [15] in a line: MRT (0 to t) in Sprague-Dawley rat at 5 mg/kg, po by LC-MS/MS analysis. The data set is classed as ADME, organism-based. As to conditions: in vivo.
Data set [16] is described as follows: AUC (0 to t) in Sprague-Dawley rat at […], iv by LC-MS/MS analysis. The data set is classed as ADME, organism-based. As to conditions: in vivo.
Data set [17] addresses cGMP-inhibited 3',5'-cyclic phosphodiesterase 3A (Homo sapiens, UniProt Q14432). Put plainly: Inhibition of PDE3A (679 to 1087 residues) (unknown origin) expressed in Escherichia coli BL21(DE3) using [3H]cAMP or [3H]cGMP as substrate after 15 mins by liquid scintillation counting method.
A short description of data set [18]: MRT (0 to t) in Sprague-Dawley rat at […], iv by LC-MS/MS analysis. The data set is classed as ADME, organism-based. As to conditions: in vivo.

The structures appear in SMILES notation. The source made the active and inactive calls. The calls are words filed in the database; no cut-off is given here.

Sequence of 3',5'-cyclic-AMP phosphodiesterase 4D (Q08499 whole entry, the tested form may be a part): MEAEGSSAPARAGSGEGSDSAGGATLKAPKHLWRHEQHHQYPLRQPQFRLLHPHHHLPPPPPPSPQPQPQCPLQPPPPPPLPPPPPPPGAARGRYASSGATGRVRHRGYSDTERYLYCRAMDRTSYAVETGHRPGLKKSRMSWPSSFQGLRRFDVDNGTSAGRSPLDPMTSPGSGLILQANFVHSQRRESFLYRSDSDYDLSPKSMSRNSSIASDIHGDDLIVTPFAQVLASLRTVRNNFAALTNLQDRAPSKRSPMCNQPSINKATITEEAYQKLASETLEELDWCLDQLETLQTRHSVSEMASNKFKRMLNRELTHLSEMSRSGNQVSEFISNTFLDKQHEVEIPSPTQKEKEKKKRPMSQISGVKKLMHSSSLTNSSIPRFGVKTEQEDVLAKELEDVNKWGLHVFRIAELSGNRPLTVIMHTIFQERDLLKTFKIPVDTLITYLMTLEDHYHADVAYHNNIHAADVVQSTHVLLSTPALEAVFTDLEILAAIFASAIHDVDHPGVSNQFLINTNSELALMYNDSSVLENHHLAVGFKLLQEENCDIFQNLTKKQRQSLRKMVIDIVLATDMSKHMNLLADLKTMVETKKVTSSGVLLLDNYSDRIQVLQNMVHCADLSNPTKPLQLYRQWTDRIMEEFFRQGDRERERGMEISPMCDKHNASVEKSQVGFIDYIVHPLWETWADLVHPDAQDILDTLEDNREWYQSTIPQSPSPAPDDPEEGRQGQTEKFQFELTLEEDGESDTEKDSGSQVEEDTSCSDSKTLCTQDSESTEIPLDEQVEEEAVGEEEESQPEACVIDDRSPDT
Sequence of High affinity 3',5'-cyclic-AMP phosphodiesterase 7A (Q13946 whole entry, the tested form may be a part): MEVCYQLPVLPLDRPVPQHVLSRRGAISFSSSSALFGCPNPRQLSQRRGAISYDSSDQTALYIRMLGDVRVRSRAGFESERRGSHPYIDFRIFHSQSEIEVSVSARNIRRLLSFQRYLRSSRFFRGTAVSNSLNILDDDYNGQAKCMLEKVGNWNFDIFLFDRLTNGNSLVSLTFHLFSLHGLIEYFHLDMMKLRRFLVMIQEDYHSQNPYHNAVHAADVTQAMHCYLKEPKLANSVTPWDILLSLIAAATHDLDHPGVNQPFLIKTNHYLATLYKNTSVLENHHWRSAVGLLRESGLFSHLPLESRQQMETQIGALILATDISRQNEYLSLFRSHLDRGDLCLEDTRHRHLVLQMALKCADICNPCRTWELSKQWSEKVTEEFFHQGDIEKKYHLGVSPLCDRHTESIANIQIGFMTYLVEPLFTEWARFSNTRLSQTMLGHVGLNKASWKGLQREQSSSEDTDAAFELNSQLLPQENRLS
Sequence of Cytochrome P450 3A4 (P08684 whole entry, the tested form may be a part): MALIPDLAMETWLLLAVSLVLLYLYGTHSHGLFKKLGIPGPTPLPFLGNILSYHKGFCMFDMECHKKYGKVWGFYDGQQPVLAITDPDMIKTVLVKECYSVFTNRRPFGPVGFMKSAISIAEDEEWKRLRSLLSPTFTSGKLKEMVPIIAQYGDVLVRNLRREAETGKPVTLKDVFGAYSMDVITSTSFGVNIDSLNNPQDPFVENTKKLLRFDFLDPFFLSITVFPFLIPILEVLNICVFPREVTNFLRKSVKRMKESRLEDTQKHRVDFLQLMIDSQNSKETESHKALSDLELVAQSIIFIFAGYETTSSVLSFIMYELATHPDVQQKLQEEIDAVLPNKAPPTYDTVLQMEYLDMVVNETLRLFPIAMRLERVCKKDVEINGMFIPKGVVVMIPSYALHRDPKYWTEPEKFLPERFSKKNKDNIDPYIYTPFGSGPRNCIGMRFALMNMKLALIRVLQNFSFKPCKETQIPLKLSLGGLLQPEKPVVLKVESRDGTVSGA
Sequence of cGMP-inhibited 3',5'-cyclic phosphodiesterase 3A (Q14432 whole entry, the tested form may be a part): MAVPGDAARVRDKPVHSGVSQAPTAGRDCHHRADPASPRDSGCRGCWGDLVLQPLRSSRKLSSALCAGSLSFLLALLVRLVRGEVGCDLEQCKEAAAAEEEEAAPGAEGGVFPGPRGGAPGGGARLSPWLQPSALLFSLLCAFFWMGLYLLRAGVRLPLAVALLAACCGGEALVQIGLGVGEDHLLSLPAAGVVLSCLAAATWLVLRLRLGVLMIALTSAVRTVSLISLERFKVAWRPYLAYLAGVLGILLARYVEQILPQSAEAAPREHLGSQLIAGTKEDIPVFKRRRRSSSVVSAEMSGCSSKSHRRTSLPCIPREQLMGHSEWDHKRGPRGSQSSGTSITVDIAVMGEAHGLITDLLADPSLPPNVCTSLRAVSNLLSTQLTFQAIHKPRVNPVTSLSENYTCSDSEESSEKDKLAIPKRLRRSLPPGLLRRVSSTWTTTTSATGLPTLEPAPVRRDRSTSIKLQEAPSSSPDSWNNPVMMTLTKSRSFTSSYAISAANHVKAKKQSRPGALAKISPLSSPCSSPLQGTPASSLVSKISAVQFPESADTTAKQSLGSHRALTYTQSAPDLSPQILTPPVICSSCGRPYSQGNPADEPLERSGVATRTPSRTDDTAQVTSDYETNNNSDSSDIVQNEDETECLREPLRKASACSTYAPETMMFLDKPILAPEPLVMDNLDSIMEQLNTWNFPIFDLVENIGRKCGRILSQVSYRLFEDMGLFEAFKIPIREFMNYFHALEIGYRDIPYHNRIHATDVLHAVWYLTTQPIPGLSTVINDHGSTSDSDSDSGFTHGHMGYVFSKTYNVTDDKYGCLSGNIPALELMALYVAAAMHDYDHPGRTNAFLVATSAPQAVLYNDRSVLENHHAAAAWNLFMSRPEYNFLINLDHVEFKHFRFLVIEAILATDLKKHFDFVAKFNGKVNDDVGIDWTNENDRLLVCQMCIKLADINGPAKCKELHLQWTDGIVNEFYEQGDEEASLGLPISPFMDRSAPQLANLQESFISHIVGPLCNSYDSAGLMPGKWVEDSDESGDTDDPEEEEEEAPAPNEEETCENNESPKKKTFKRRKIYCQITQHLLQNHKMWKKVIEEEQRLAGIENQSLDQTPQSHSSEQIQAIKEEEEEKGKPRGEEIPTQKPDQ
Sequence of High affinity cAMP-specific and IBMX-insensitive 3',5'-cyclic phosphodiesterase 8A (O60658 whole entry, the tested form may be a part): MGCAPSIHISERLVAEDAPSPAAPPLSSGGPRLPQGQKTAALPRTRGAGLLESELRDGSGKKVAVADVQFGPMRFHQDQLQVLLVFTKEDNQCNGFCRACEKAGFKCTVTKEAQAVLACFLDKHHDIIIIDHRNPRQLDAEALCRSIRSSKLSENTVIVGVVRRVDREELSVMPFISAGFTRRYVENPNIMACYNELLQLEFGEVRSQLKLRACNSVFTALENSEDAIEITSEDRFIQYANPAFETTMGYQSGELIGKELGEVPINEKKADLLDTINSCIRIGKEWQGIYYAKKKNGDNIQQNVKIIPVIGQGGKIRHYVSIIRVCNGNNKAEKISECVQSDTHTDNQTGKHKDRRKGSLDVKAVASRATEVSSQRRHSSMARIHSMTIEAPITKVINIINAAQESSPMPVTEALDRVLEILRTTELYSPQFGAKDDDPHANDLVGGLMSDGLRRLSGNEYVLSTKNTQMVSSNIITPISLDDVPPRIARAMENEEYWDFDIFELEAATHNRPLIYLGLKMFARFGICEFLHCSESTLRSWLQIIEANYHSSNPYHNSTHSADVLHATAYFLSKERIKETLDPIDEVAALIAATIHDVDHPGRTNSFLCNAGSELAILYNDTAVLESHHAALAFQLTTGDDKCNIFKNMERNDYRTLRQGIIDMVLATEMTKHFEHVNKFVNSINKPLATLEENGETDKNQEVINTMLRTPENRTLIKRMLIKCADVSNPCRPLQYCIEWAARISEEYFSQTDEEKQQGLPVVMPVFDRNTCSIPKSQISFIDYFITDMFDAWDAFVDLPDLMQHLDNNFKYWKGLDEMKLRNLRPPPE

In the data set on Liver [1], `O=c1c2ccccc2oc2c(Cc3ccc4c(c3)OCO4)[nH]c(-c3nccs3)c12` returned a CLH of 56.1 µL/min/mg. Moreover, the Activity in the data set with Rattus norvegicus [2] was 18.65 mmHg. In addition, in data set [3], the peak level (Cmax) was 2360 ng/mL. In addition, the half-life (in general, how long it takes for the measured level to halve) at 0.5 µM in [4] amounted to 0.412 h. For the same molecule, the K in the data set on Liver [5] came out at 0.0124; in the data set on Liver [13] it was 0.0281. Also, the half-inhibitory concentration (IC50) (as a rule, the point on the concentration scale where inhibition reaches its midpoint) was over 25 µM on Cytochrome P450 3A4; 2.77 µM in data set [6]; over 10 µM in [7]; 6.22 µM in data set [9]; 0.058 µM in data set [10]; over 10 µM in data set [17]. Also, the bioavailability (as a rule, dose-corrected exposure relative to a reference, in per cent) in data set [8] came to 63.4%. The Tmax (commonly the time from dosing to the highest level) in data set [11] worked out at 4 h. Besides, the inhibition result with Rattus norvegicus [12] was “Active”. Further, in data set [14], the AUC(0-inf) – broadly, the area under the concentration-time curve extrapolated to infinity – is 2030 ng·h/mL. Moreover, the MRT last (in general, the average time that molecules of a dose stay in the body) in data set [15] came out at 4.76 h; in [18], 2.14 h. Moreover, the area under the curve AUC(0-t) (commonly the area under the concentration-time curve up to a stated or last time point) in [16] amounted to 1700 ng·h/mL.
